Test results as given in ChEMBL document CHEMBL1201862, “PubChem BioAssay data set” (2004).
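These data come from cells grown in 96-well plates and exposed to compound for 48 hours at five concentrations. GI50 = concentration required for 50% inhibition of growth.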 Active and inactive are the calls of the source. Rule as the data show it: active = GI50 up to about 1.1 µM and inactive = higher.

Experiments:
Experiment in all cases: DTP human tumour cell line panel, 48 h
A498 = system: A498
ACHN = system: ACHN
HCT-116 = system: HCT-116
HCT-15 = system: HCT-15
HT-29 = system: HT-29
IGROV-1 = system: IGROV-1
LOX IMVI = system: LOX IMVI
M14 = system: M14
NCI-H522 = system: NCI-H522
OVCAR-3 = system: OVCAR-3
OVCAR-5 = system: OVCAR-5
OVCAR-8 = system: OVCAR-8
SF-268 = system: SF-268
SK-MEL-28 = system: SK-MEL-28
SK-MEL-2 = system: SK-MEL-2
SN12C = system: SN12C
SNB-19 = system: SNB-19
HOP-62 = system: HOP-62

Compound | GI50 (A498) | GI50 (ACHN) | GI50 (HCT-116) | GI50 (HCT-15) | GI50 (HT-29) | GI50 (IGROV-1) | GI50 (LOX IMVI) | GI50 (M14) | GI50 (NCI-H522) | GI50 (OVCAR-3) | GI50 (OVCAR-5) | GI50 (OVCAR-8) | GI50 (SF-268) | GI50 (SK-MEL-28) | GI50 (SK-MEL-2) | GI50 (SN12C) | GI50 (SNB-19) | GI50 (HOP-62)
COc1cc(/C=C2/C(=O)N(C(=O)c3ccc(Cl)cc3)N=C2C)cc(OC)c1OC | > 100 µM (inactive) | > 100 µM (inactive) | > 100 µM (inactive) | > 100 µM | > 100 µM (inactive) | > 100 µM (inactive) | > 100 µM (inactive) | > 100 µM (inactive) | > 100 µM (inactive) | > 100 µM (inactive) | > 100 µM (inactive) | > 100 µM (inactive) | > 100 µM (inactive) | > 100 µM (inactive) | > 100 µM (inactive) | > 100 µM (inactive) | > 100 µM (inactive) | –
CC1=CC2=C(C)C3(CC3)[C@@](C)(O)C(=O)C2=C1 | 0.241 µM (active) | 0.176 µM (active) | 0.171 µM (active) | 0.193 µM | 0.227 µM (active) | 0.29 µM (active) | 0.174 µM (active) | 0.171 µM (active) | 0.145 µM (active) | 0.182 µM (active) | 0.239 µM (active) | 0.211 µM (active) | 0.133 µM (active) | 0.194 µM (active) | 0.191 µM (active) | 0.231 µM (active) | 0.243 µM (active) | 0.146 µM (active)
COc1cc(/C=C(\C)c2ccc3c(c2)OCO3)cc(OC)c1OC | 17.6 µM (inactive) | 10.3 µM (inactive) | 31.8 µM (inactive) | 26.1 µM | 25.7 µM (inactive) | 25.1 µM (inactive) | 16 µM (inactive) | 36.7 µM (inactive) | 20.2 µM (inactive) | 34.8 µM (inactive) | 55.3 µM (inactive) | 29.8 µM (inactive) | 26.9 µM (inactive) | 41.1 µM (inactive) | 23.4 µM (inactive) | 26.2 µM (inactive) | 50.7 µM (inactive) | 70 µM (inactive)
O=C1OC2C(O)COC2(O)C1(O)Cc1c[nH]c2ccccc12.O=C1OC2C(O)COC2(OCc2c[nH]c3ccccc23)C1O (stereo unspecified) | > 100 µM (inactive) | – | > 100 µM (inactive) | > 100 µM | > 100 µM (inactive) | > 100 µM (inactive) | > 100 µM (inactive) | > 100 µM (inactive) | > 100 µM (inactive) | > 100 µM (inactive) | > 100 µM (inactive) | > 100 µM (inactive) | > 100 µM (inactive) | – | > 100 µM (inactive) | > 100 µM (inactive) | > 100 µM (inactive) | > 100 µM (inactive)
CC1=C2C=CC(=O)C[C@@]2(C)CCC1 | > 100 µM (inactive) | > 100 µM (inactive) | > 100 µM (inactive) | > 100 µM | > 100 µM (inactive) | > 100 µM (inactive) | > 100 µM (inactive) | > 100 µM (inactive) | > 100 µM (inactive) | > 100 µM (inactive) | > 100 µM (inactive) | > 100 µM (inactive) | > 100 µM (inactive) | > 100 µM (inactive) | > 100 µM (inactive) | > 100 µM (inactive) | > 100 µM (inactive) | > 100 µM (inactive)
CCc1cccc(C)c1NC(=O)CC1C(=O)Nc2ccccc2S1(=O)=O (stereo unspecified) | 21 µM (inactive) | 18.6 µM (inactive) | 15.8 µM (inactive) | 12 µM | 19.7 µM (inactive) | 13.4 µM (inactive) | 13.2 µM (inactive) | 18.9 µM (inactive) | 15.8 µM (inactive) | 15.2 µM (inactive) | 23.6 µM (inactive) | 19.8 µM (inactive) | 20.8 µM (inactive) | 18.5 µM (inactive) | 21.1 µM (inactive) | 20.8 µM (inactive) | 27.5 µM (inactive) | –
COC(=O)CCC(NC(=S)N/N=C(\C)c1cccs1)C(=O)OC (stereo unspecified) | > 100 µM (inactive) | > 100 µM (inactive) | > 100 µM (inactive) | > 100 µM | > 100 µM (inactive) | > 100 µM (inactive) | > 100 µM (inactive) | > 100 µM (inactive) | > 100 µM (inactive) | > 100 µM (inactive) | > 100 µM (inactive) | > 100 µM (inactive) | > 100 µM (inactive) | > 100 µM (inactive) | > 100 µM (inactive) | > 100 µM (inactive) | > 100 µM (inactive) | > 100 µM (inactive)
Cc1nc2ccccc2c(=O)n1/N=C(\N=N\c1ccccc1Cl)c1ccccc1Cl | 43 µM (inactive) | 50.5 µM (inactive) | 36.4 µM (inactive) | 57.1 µM | 53.6 µM (inactive) | 42.1 µM (inactive) | 86.5 µM (inactive) | > 100 µM (inactive) | 22.9 µM (inactive) | – | – | > 100 µM (inactive) | 35.1 µM (inactive) | > 100 µM (inactive) | – | 38.8 µM (inactive) | – | 34.8 µM (inactive)
